One data set addresses T1, human alpha 7-wt nAChR (Homo sapiens, UniProt P36544).
T1 construct: expressed in transfected cells
The data set can be described thus: Ca2+ flux imaging (FDSS) (Protocol B). It is filed as cell-based. Conditions: for Emax: efficacy of 100 μM choline defined as 100% in the absence of a PAM, read-out: a7-PAM-G_[33]_Eff_Curve_FI % Efficacy; for EC50: potentiation of 100 μM choline, compounds 0.01 μM to 30 μM, read-out: a7-PAM-G_[33]_pEC50 pEC50 (converted). A digest of the protocol: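 Fluo-4AM-loaded cells expressing human α7-wt nAChR, in HBSS with 10 mM HEPES, 5 mM CaCl2, 0.1% BSA, received compound (0.01–30 μM), typically 10 min before 100 μM choline, with calcium flux read in real time. Potentiation is relative to choline alone (100%); EC50 from sigmoidal curves.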

The values that follow come from patent publication US8637510B2, “Morpholinothiazoles as alpha 7 positive allosteric modulators” (Janssen Pharmaceutica NV, priority 2009, dated 2014).

The structures appear in SMILES notation.

Usually melting point stands for the temperature, or range, at which the solid turns liquid.

T1 sequence (P36544 23-502): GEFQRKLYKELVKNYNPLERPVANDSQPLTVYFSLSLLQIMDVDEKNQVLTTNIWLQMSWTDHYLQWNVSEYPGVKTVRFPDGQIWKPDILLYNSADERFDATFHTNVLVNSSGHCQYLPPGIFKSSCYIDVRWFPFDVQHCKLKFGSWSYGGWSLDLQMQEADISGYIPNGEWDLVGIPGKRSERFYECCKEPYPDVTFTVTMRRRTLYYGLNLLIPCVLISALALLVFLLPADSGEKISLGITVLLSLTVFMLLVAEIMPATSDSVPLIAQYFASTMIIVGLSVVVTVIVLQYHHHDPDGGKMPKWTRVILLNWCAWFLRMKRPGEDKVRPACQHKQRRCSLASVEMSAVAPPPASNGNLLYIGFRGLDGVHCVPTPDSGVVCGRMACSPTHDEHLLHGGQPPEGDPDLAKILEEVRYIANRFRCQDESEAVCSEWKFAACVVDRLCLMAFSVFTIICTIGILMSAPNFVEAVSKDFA

Compound `Cc1cc(-c2sc(N3CCOC[C@@H]3C)nc2CNC(=O)CC2CC2)cc(C)n1` [Compound 187, N-[[5-(2,6-dimethyl-4-pyridinyl)-2-[(3S)-3-methyl-4-morpholinyl]-4-thiazolyl]methyl]-cyclopropaneacetamide] showed a melting point of 138 °C. Further, at human alpha 7-wt nAChR, the Emax came out at 994% and the EC50 is 5250 nM.

With `CC(C)CC(=O)NCc1nc(N2C[C@@H](C)O[C@@H](C)C2)sc1-c1ccncc1` [Compound 103, N-[[2-[(2R,6S)-2,6-dimethyl-4-morpholinyl]-5-(4-pyridinyl)-4-thiazolyl]methyl]-3-methyl-butanamide], the melting point amounted to 173 °C. In addition, the EC50 at human alpha 7-wt nAChR was 1290 nM.

In the case of `Cc1cc(-c2sc(N3C[C@@H](C)O[C@@H](C)C3)nc2CNC(=O)c2cc(C)on2)c(C)cn1` [Compound 98, N-[[2-[(2R,6S)-2,6-dimethyl-4-morpholinyl]-5-(2,5-dimethyl-4-pyridinyl)-4-thiazolyl]methyl]-5-methyl-3-isoxazolecarboxamide], the melting point was found to be 155 °C. Moreover, the EC50 on human alpha 7-wt nAChR is 4070 nM.

As for `O=C(NCc1nc(N2CCOCC2)sc1-c1ccncc1)C1CC1` [Compound 116, N-[[2-(4-morpholinyl)-5-(4-pyridinyl)-4-thiazolyl]methyl]-cyclopropanecarboxamide], the melting point is 189 °C. Also, on human alpha 7-wt nAChR, the Emax came to 259%.

Regarding `CCCC(=O)NCc1nc(N2C[C@@H](C)O[C@@H](C)C2)sc1-c1cc(C)nc(C)c1` [Compound 41, N-[[2-[(2R,6S)-2,6-dimethyl-4-morpholinyl]-5-(2,6-dimethyl-4-pyridinyl)-4-thiazolyl]methyl]-butanamide], the melting point was found to be 155 °C. At human alpha 7-wt nAChR, the Emax stood at 657% and the EC50 is 102 nM.

On to `Cc1cc(C(=O)NCc2nc(N3C[C@@H](C)O[C@@H](C)C3)sc2-c2ccnc(C(F)(F)F)c2)no1` [Compound 199, N-[[2-[(2R,6S)-2,6-dimethyl-4-morpholinyl]-5-[2-(trifluoromethyl)-4-pyridinyl]-4-thiazolyl]methyl]-5-methyl-3-isoxazolecarboxamide], for which the melting point was determined as 228 °C. Also, the EC50 at human alpha 7-wt nAChR was 219 nM.

The compound `Cc1ccc(-c2sc(N3C[C@@H](C)O[C@@H](C)C3)nc2CNC(=O)c2cccc(F)c2)cn1` [Compound 125, N-[[2-[(2R,6S)-2,6-dimethyl-4-morpholinyl]-5-(6-methyl-3-pyridinyl)-4-thiazolyl]methyl]-3-fluoro-benzamide] registered a melting point of 147 °C. Moreover, at human alpha 7-wt nAChR, the Emax came out at 428% and the EC50 is 851 nM.

With `Cc1cc(-c2sc(N3CCOC(C)C3)nc2CNC(=O)c2ccc(F)cc2C)cc(C)n1` (single isomer, unassigned) [Compound 70, N-[[5-(2,6-dimethyl-4-pyridinyl)-2-[(2S*)-2-methyl-4-morpholinyl]-4-thiazolyl]methyl]-4-fluoro-2-methyl-benzamide], the melting point was 185 °C. In addition, the EC50 at human alpha 7-wt nAChR was 81.3 nM.

Compound `Cc1cc(-c2sc(N3C[C@@H](C)O[C@@H](C)C3)nc2CNC(=O)c2nn(C)cc2C)cc(C)n1` [Compound 172, N-[[2-[(2R,6S)-2,6-dimethyl-4-morpholinyl]-5-(2,6-dimethyl-4-pyridinyl)-4-thiazolyl]methyl]-1,4-dimethyl-1H-pyrazole-3-carboxamide] displayed a melting point of 165 °C. Moreover, at human alpha 7-wt nAChR, the Emax turned out to be 292% and the EC50 was 2630 nM.

As to `Cc1cc(-c2sc(N3C[C@@H](C)O[C@@H](C)C3)nc2CNC(=O)c2ccc(F)cc2)ccn1` [Compound 94, N-[[2-[(2R,6S)-2,6-dimethyl-4-morpholinyl]-5-(2-methyl-4-pyridinyl)-4-thiazolyl]methyl]-4-fluoro-benzamide], the melting point came to 225 °C. For the same compound, at human alpha 7-wt nAChR, the Emax stood at 420% and the EC50 is 479 nM.

For `Cc1cc(-c2sc(N3C[C@@H](C)O[C@@H](C)C3)nc2CNC(=O)c2ccc(F)c(F)c2)cc(C)n1` [Compound 36, N-[[2-[(2R,6S)-2,6-dimethyl-4-morpholinyl]-5-(2,6-dimethyl-4-pyridinyl)-4-thiazolyl]methyl]-3,4-difluoro-benzamide], the melting point is 189 °C. At human alpha 7-wt nAChR, the Emax was 869% and the EC50 was 74.1 nM.

Consider `Cc1cc(-c2sc(N3CCOC[C@@H]3C)nc2CNC(=O)c2ccc(F)cc2C)cc(C)n1` [Compound 184, N-[[5-(2,6-dimethyl-4-pyridinyl)-2-[(3S)-3-methyl-4-morpholinyl]-4-thiazolyl]methyl]-4-fluoro-2-methyl-benzamide], for which the melting point was found to be 156 °C. In addition, at human alpha 7-wt nAChR, the Emax turned out to be 974% and the EC50 was 562 nM.

With `Cc1ccc(-c2sc(N3C[C@@H](C)O[C@@H](C)C3)nc2CNC(=O)c2ccc(Cl)cc2)cn1` [Compound 123, 4-chloro-N-[[2-[(2R,6S)-2,6-dimethyl-4-morpholinyl]-5-(6-methyl-3-pyridinyl)-4-thiazolyl]methyl]-benzamide], the melting point amounted to 208 °C. Further, on human alpha 7-wt nAChR, the Emax turned out to be 636% and the EC50 is 389 nM.

`Cc1cc(-c2sc(N3C[C@@H](C)O[C@@H](C)C3)nc2CNC(=O)CC2CC2)c(C)cn1` [Compound 97, N-[[2-[(2R,6S)-2,6-dimethyl-4-morpholinyl]-5-(2,5-dimethyl-4-pyridinyl)-4-thiazolyl]methyl]-cyclopropaneacetamide] displayed a melting point of 138 °C. For the same compound, at human alpha 7-wt nAChR, the Emax was found to be 424% and the EC50 is 3020 nM.

Turning to `Cc1ccc(-c2sc(N3C[C@@H](C)O[C@@H](C)C3)nc2CNC(=O)c2cccc(Cl)c2)cn1` [Compound 122, 3-chloro-N-[[2-[(2R,6S)-2,6-dimethyl-4-morpholinyl]-5-(6-methyl-3-pyridinyl)-4-thiazolyl]methyl]-benzamide], the melting point was determined as 167 °C. At human alpha 7-wt nAChR, the Emax worked out at 473% and the EC50 was 1000 nM.

Compound `Cc1cc(-c2sc(N3CC4CCC(C3)O4)nc2CNC(=O)c2conc2C)cc(C)n1` [Compound 211, N-[[5-(2,6-dimethyl-4-pyridinyl)-2-(8-oxa-3-azabicyclo[3.2.1]oct-3-yl)-4-thiazolyl]methyl]-3-methyl-4-isoxazolecarboxamide] showed a melting point of 94 °C. At human alpha 7-wt nAChR, the Emax worked out at 246% and the EC50 is 4900 nM.

As to `Cc1cc(-c2sc(N3CC(C)OC(C)C3)nc2CNC(=O)c2ccc(Cl)cc2)cc(C)n1` (racemic) [Compound 58, 4-chloro-N-[[2-[2,6-dimethyl-4-morpholinyl]-5-(2,6-dimethyl-4-pyridinyl)-4-thiazolyl]methyl]-benzamide], the melting point is 184 °C. For the same compound, the EC50 at human alpha 7-wt nAChR was 295 nM.

`Cc1cc(-c2sc(N3C[C@@H](C)O[C@@H](C)C3)nc2CNC(=O)CC2CCC2)cc(C)n1` [Compound 49, N-[[2-[(2R,6S)-2,6-dimethyl-4-morpholinyl]-5-(2,6-dimethyl-4-pyridinyl)-4-thiazolyl]methyl]-cyclobutaneacetamide] registered a melting point of 153 °C. Moreover, the EC50 at human alpha 7-wt nAChR is 26.3 nM.

`Cc1ccc(-c2sc(N3C[C@@H](C)O[C@@H](C)C3)nc2CNC(=O)C2CCC2)cn1` [Compound 120, N-[[2-[(2R,6S)-2,6-dimethyl-4-morpholinyl]-5-(6-methyl-3-pyridinyl)-4-thiazolyl]methyl]-cyclobutanecarboxamide] came in with a melting point of 139 °C. The Emax on human alpha 7-wt nAChR came to 567%.

Regarding `Cc1cc(-c2sc(N3CC(C)OC(C)C3)nc2CNC(=O)c2cc(C)on2)cc(C)n1` (racemic) [Compound 59, N-[[2-[2,6-dimethyl-4-morpholinyl]-5-(2,6-dimethyl-4-pyridinyl)-4-thiazolyl]methyl]-5-methyl-3-isoxazolecarboxamide], the melting point came to 166 °C. Further, at human alpha 7-wt nAChR, the Emax was 938% and the EC50 is 1620 nM.

On to `Cc1cc(-c2sc(N3CCOC(C)C3)nc2CNC(=O)c2ccc(F)cc2C)cc(C)n1` (single isomer, unassigned) [Compound 77, N-[[5-(2,6-dimethyl-4-pyridinyl)-2-[(2R*)-2-methyl-4-morpholinyl]-4-thiazolyl]methyl]-4-fluoro-2-methyl-benzamide], for which the melting point was found to be 188 °C. Besides, at human alpha 7-wt nAChR, the Emax is 809% and the EC50 was 107 nM.

`Cc1cc(-c2sc(N3C[C@@H](C)O[C@@H](C)C3)nc2CNC(=O)CCC2CC2)cc(C)n1` [Compound 50, N-[[2-[(2R,6S)-2,6-dimethyl-4-morpholinyl]-5-(2,6-dimethyl-4-pyridinyl)-4-thiazolyl]methyl]-cyclopropanepropanamide] showed a melting point of 168 °C. On human alpha 7-wt nAChR, the Emax came to 953% and the EC50 was 66.1 nM.

As for `Cc1cc(-c2sc(N3C[C@@H](C)O[C@@H](C)C3)nc2CNC(=O)c2oc(C)nc2C)cc(C)n1` [Compound 159, N-[[2-[(2R,6S)-2,6-dimethyl-4-morpholinyl]-5-(2,6-dimethyl-4-pyridinyl)-4-thiazolyl]methyl]-2,4-dimethyl-5-oxazolecarboxamide], the melting point was found to be 193 °C. On human alpha 7-wt nAChR, the Emax came out at 704% and the EC50 is 9770 nM.

Regarding `Cc1cc(F)ccc1C(=O)NCc1nc(N2C[C@@H](C)O[C@@H](C)C2)sc1-c1ccncc1` [Compound 102, N-[[2-[(2R,6S)-2,6-dimethyl-4-morpholinyl]-5-(4-pyridinyl)-4-thiazolyl]methyl]-4-fluoro-2-methyl-benzamide], the melting point was 161 °C. Further, on human alpha 7-wt nAChR, the Emax was 982% and the EC50 was 347 nM.
